Holding throughout (type): functional
One assay relates to MDA-MB-231. In words: Cytotoxicity against human MDA-MB-231 cells assessed as cell growth at 10 uM after 48 hrs by SRB assay. Conditions: MDA-MB-231, 48 h, read-out: Activity. On the technique in general: The SRB assay estimates cell density from bound dye.
Assay [1] can be described thus: Cytotoxicity against human HOP62 cells assessed as cell growth at 10 uM after 48 hrs by SRB assay. As to conditions: HOP-62, 48 h, read-out: Activity.
For a further assay, the system named is EKVX. Nature of the assay: Cytotoxicity against human EKVX cells assessed as cell growth at 10 uM after 48 hrs by SRB assay. As to conditions: read-out: Activity.
Assay [2] in a line: Cytotoxicity against human OVCAR5 cells assessed as cell growth at 10 uM after 48 hrs by SRB assay. Conditions: OVCAR-5, 48 h, read-out: Activity.
The subject of assay [3] is MDA-MB-468. Nature of the assay: Cytotoxicity against human MDA-MB-468 cells assessed as cell growth at 10 uM after 48 hrs by SRB assay. Conditions: MDA-MB-468, 48 h, read-out: Activity.
In the next assay the test system is HT-29. Nature of the assay: Cytotoxicity against human HT-29 cells assessed as cell growth at 10 uM after 48 hrs by SRB assay. As to conditions: HT-29, 48 h, read-out: Activity.
Assay [4] can be described thus: Cytotoxicity against human UACC62 cells assessed as cell growth at 10 uM after 48 hrs by SRB assay. As to conditions: UACC-62, 48 h, read-out: Activity.
Assay [5] is described as follows: Cytotoxicity against human LOXIMVI cells assessed as cell growth at 10 uM after 48 hrs by SRB assay. As to conditions: LOX IMVI, read-out: Activity.
For a further assay, the system named is U-251. In words: Cytotoxicity against human U251 cells assessed as cell growth at 10 uM after 48 hrs by SRB assay. As to conditions: U-251, 48 h, read-out: Activity.
For assay [6], the system named is T47D. In words: Cytotoxicity against human T47D cells assessed as cell growth at 10 uM after 48 hrs by SRB assay. Conditions: read-out: Activity.
Assay [7] can be described thus: Cytotoxicity against human NCI-ADR-RES cells assessed as cell growth at 10 uM after 48 hrs by SRB assay. Conditions: read-out: Activity.
A further assay deals with NCI-H522. Nature of the assay: Cytotoxicity against human NCI-H522 cells assessed as cell growth at 10 uM after 48 hrs by SRB assay. Conditions: NCI-H522, 48 h, read-out: Activity.
The nature of assay [8]: Cytotoxicity against human HOP62 cells assessed as cell growth at 7.25 uM after 48 hrs by SRB assay. As to conditions: HOP-62, 48 h, read-out: Activity.
For assay [9], the system named is NCI-H226. Nature of the assay: Cytotoxicity against human NCI-H226 cells assessed as cell growth at 7.25 uM after 48 hrs by SRB assay. Conditions: NCI-H226, 48 h, read-out: Activity.
The subject of another assay is SK-MEL-28. Nature of the assay: Cytotoxicity against human SK-MEL-28 cells assessed as cell growth at 7.25 uM after 48 hrs by SRB assay. As to conditions: SK-MEL-28, 48 h, read-out: Activity.
A short description of assay [10]: Cytotoxicity against human Caki1 cells assessed as cell growth at 7.25 uM after 48 hrs by SRB assay. Conditions: CAKI-1, 48 h, read-out: Activity.
A further assay has as its system NCI-H23. In words: Cytotoxicity against human NCI-H23 cells assessed as cell growth at 7.25 uM after 48 hrs by SRB assay. As to conditions: NCI-H23, 48 h, read-out: Activity.
The test system of assay [11] is Malme-3M. Nature of the assay: Cytotoxicity against human MALME-3M cells assessed as cell growth at 7.25 uM after 48 hrs by SRB assay. Conditions: read-out: Activity.
In assay [12] the test system is NCI-H226. In words: Cytotoxicity against human NCI-H226 cells assessed as cell mortality at 7.25 uM after 48 hrs by SRB assay. As to conditions: NCI-H226, 48 h.
In assay [13] the test system is T47D. Nature of the assay: Cytotoxicity against human T47D cells assessed as cell growth at 7.25 uM after 48 hrs by SRB assay. Conditions: read-out: Activity.
The subject of assay [14] is NCI-H322M. In words: Cytotoxicity against human NCI-H322M cells assessed as cell growth at 7.25 uM after 48 hrs by SRB assay. As to conditions: read-out: Activity.
Assay [15] is described as follows: Cytotoxicity against human OVCAR3 cells assessed as cell growth at 7.25 uM after 48 hrs by SRB assay. As to conditions: OVCAR-3, 48 h, read-out: Activity.
Assay [16] in a line: Cytotoxicity against human IGROV1 cells assessed as cell growth at 7.25 uM after 48 hrs by SRB assay. Conditions: IGROV-1, 48 h, read-out: Activity.
The test system of another assay is ACHN. In words: Cytotoxicity against human ACHN cells assessed as cell growth at 7.25 uM after 48 hrs by SRB assay. Conditions: read-out: Activity.
Assay [17] can be described thus: Cytotoxicity against human DU145 cells assessed as cell growth at 7.25 uM after 48 hrs by SRB assay. Conditions: DU-145, 48 h, read-out: Activity.
Assay [18] is described as follows: Cytotoxicity against human IGROV1 cells assessed as cell growth at 2.13 uM after 48 hrs by SRB assay. As to conditions: IGROV-1, 48 h, read-out: Activity.
Assay [19] is described as follows: Cytotoxicity against human NCI-ADR-RES cells assessed as cell growth at 2.13 uM after 48 hrs by SRB assay. As to conditions: read-out: Activity.
Assay [20] in a line: Cytotoxicity against human SF295 cells assessed as cell growth at 2.13 uM after 48 hrs by SRB assay. As to conditions: SF-295, 48 h, read-out: Activity.
Assay [21] relates to MDA-MB-468. In words: Cytotoxicity against human MDA-MB-468 cells assessed as cell growth at 2.13 uM after 48 hrs by SRB assay. As to conditions: MDA-MB-468, 48 h, read-out: Activity.
The subject of the next assay is SN12C. Nature of the assay: Cytotoxicity against human SN12C cells assessed as cell growth at 2.13 uM after 48 hrs by SRB assay. As to conditions: read-out: Activity.
Assay [22] in a line: Cytotoxicity against human PC3 cells assessed as cell growth at 2.13 uM after 48 hrs by SRB assay. As to conditions: PC-3, 48 h, read-out: Activity.
Assay [23] can be described thus: Cytotoxicity against human TK10 cells assessed as cell growth at 2.13 uM after 48 hrs by SRB assay. Conditions: TK-10, 48 h, read-out: Activity.
Another assay has as its system 786-0. Nature of the assay: Cytotoxicity against human 786-0 cells assessed as cell growth at 2.13 uM after 48 hrs by SRB assay. As to conditions: 786-0, 48 h, read-out: Activity.
Assay [24] relates to Malme-3M. Nature of the assay: Cytotoxicity against human MALME-3M cells assessed as cell growth at 2.13 uM after 48 hrs by SRB assay. Conditions: read-out: Activity.
Assay [25] is described as follows: Cytotoxicity against human SW620 cells assessed as cell growth at 2.13 uM after 48 hrs by SRB assay. As to conditions: SW-620, 48 h, read-out: Activity.
Assay [26] can be described thus: Cytotoxicity against human COLO205 cells assessed as cell growth at 2.13 uM after 48 hrs by SRB assay. Conditions: COLO 205, 48 h, read-out: Activity.
Assay [27] in a line: Cytotoxicity against human UACC62 cells assessed as cell growth at 2.13 uM after 48 hrs by SRB assay. Conditions: UACC-62, 48 h, read-out: Activity.
The nature of assay [28]: Cytotoxicity against human OVCAR3 cells assessed as cell growth at 2.13 uM after 48 hrs by SRB assay. Conditions: OVCAR-3, 48 h, read-out: Activity.
The nature of assay [29]: Cytotoxicity against human SNB75 cells assessed as cell growth at 2.13 uM after 48 hrs by SRB assay. As to conditions: SNB-75, 48 h, read-out: Activity.
The subject of assay [30] is NCI-H322M. In words: Cytotoxicity against human NCI-H322M cells assessed as cell growth at 2.13 uM after 48 hrs by SRB assay. As to conditions: read-out: Activity.
Assay [31] can be described thus: Cytotoxicity against human HCT15 cells assessed as cell growth at 2.13 uM after 48 hrs by SRB assay. As to conditions: HCT-15, 48 h, read-out: Activity.

Broadly, the mortality is the percentage killed.

As to `CC(C)C[C@H](NC(=O)[C@H](CCCCN)NC(=O)[C@H](C)NC(=O)[C@H](CC(C)C)NC(=O)[C@H](CCCCN)NC(=O)[C@H](CCCCN)NC(=O)[C@H](C)NC(=O)[C@H](CC(C)C)NC(=O)[C@H](CCCCN)NC(=O)[C@H](C)NC(=O)[C@H](CC(C)C)NC(=O)[C@H](CCCCN)NC(=O)[C@@H](N)CC(=O)O)C(=O)N[C@@H](C)C(=O)N[C@@H](CCCCN)C(=O)N[C@@H](C)C(=O)N[C@@H](CCCCN)C(N)=O`, the growth at 10 µM in the assay with MDA-MB-231 was found to be 109%; in [1], 104%; in the assay on EKVX, 104%; in assay [2], 98.6%; in the assay on MDA-MB-468 [3] it was 100%; in the assay on HT-29, 94.8%. Moreover, the growth at 10 µM was 104% in assay [4]; 97.2% in assay [5]; 94.6% in the assay with U-251; 113% in the assay with T47D [6]; 105% in [7]; 86.4% with NCI-H522.

On to `CCCCCCCCCCCCCCCC(=O)NCCCC[C@H](NC(=O)[C@H](C)NC(=O)[C@H](CCCCN)NC(=O)[C@H](C)NC(=O)[C@H](CC(C)C)NC(=O)[C@H](CCCCN)NC(=O)[C@H](C)NC(=O)[C@H](CC(C)C)NC(=O)[C@H](CCCCN)NC(=O)[C@H](CCCCN)NC(=O)[C@H](C)NC(=O)[C@H](CC(C)C)NC(=O)[C@H](CCCCN)NC(=O)[C@H](C)NC(=O)[C@H](CC(C)C)NC(=O)[C@H](CCCCN)NC(=O)[C@@H](N)CC(=O)O)C(N)=O`, for which the growth at 7.25 µM in assay [8] turned out to be 99.8%; in the assay on NCI-H226 [9], 99.5%; with SK-MEL-28, 106%; in [10], 98.3%; with NCI-H23, 104%; in the assay with Malme-3M [11], 102%. Besides, the growth at 7.25 µM in the assay with T47D [13] was determined as 99%; in the assay with NCI-H322M [14], 108%; in assay [15], 122%; in [16], 108%; with ACHN it was 99.3%; in [17] it was 123%. For the same molecule, in the assay on NCI-H226 [12], the mortality at 7.25 µM came out at 0%.

As to `CCCCCCCCCCCCCCCCNCCO[C@H]1C[C@H](n2cc(C)c(=O)[nH]c2=O)O[C@@H]1C(=O)NCCCC[C@H](NC(=O)[C@H](C)NC(=O)[C@H](CCCCN)NC(=O)[C@H](C)NC(=O)[C@H](CC(C)C)NC(=O)[C@H](CCCCN)NC(=O)[C@H](C)NC(=O)[C@H](CC(C)C)NC(=O)[C@H](CCCCN)NC(=O)[C@H](CCCCN)NC(=O)[C@H](C)NC(=O)[C@H](CC(C)C)NC(=O)[C@H](CCCCN)NC(=O)[C@H](C)NC(=O)[C@H](CC(C)C)NC(=O)[C@H](CCCCN)NC(=O)[C@@H](N)CC(=O)O)C(N)=O`, the growth at 2.13 µM in assay [18] worked out at 107%; in assay [19], 109%; in assay [20], 97.7%; in the assay with MDA-MB-468 [21], 100%; in the assay on SN12C it was 103%; in [22], 92.3%. Moreover, the growth at 2.13 µM in [23] was determined as 95.9%; with 786-0, 107%; in the assay on Malme-3M [24], 104%; in assay [25] it was 108%; in assay [26], 109%; in assay [27] it was 104%. Besides, the growth at 2.13 µM in [28] stood at 107%; in [29] it was 96.1%; in the assay on NCI-H322M [30] it was 110%; in assay [31], 104%.

For the origin of these results see ChEMBL document CHEMBL3822390, “Synthesis, characterization and anti-cancer activity of a peptide nucleolipid bioconjugate” (2016).
